In data set [1] the test system is mice. As to the kind of experiment: Elevated plus maze (EPM) test. Format: in vivo. The following applies: n = 6. An excerpt:
The EPM experiment is a method for evaluating whether experimental animals have an anxiety response. The principle is that, in the face of new things, mice will generate curiosity to explore (open arm), while they have a nature of darkness (closed arm), the conflict behavior between the two occurs between exploration and avoidance, resulting in anxiety. Anxious behavior can be evaluated by comparing the retention time of mice in the open and closed arms.
Flumazenil is a selective BZ antagonist with a chemical structure similar to that of BZs, which acts on central benzodiazepine (BZ) receptors and thus blocks the receptors without producing BZ-like effects.
The apparatus consisted of a black acrylic maze with two opposite open arms (50×10 cm) and two opposite closed arms (50×10×40 cm) disposed like a plus sign with a central square of 10 cm2. Entire maze wa s elevated 50 cm above the floor. The test consisted in placing the rat in the central square of the maze facing one closed arm and allowing it to explore during 5 min. This procedure wa s performed in a quiet and dimly illuminated room. The scores analysed we r e the time spent in open and closed arms, and the number of entries to both […]
widely used as an anxiety index (time spent in open arms relative to the time spent in open […]
and closed arms). […]

Data set [2] relates to pentylenetetrazole-induced clonic seizures. As to the kind of experiment: animal or person. Format: in vivo, Kunming mice. The following applies: for ED50 (scPTZ): value (95% CI); for PI (TD50/ED50) scPTZ: Kunming, mouse, in vivo; for minimal effective dose: doses 30, 100, 300 mg/kg, read-out: scPTZ, dose at which at least one of three animals was protected. As to the method:
(§1) Pharmacological tests were performed using two experimental animal models, MES and scPTZ, which were divided into three dosage groups of 30, 100, and 300 mg/kg, and the anticonvulsant activity of the target compounds 6a–m and 9a–g, after 0.5 and 4 h of administration, respectively, were tested. Carbamazepine, which is effective in the MES model, was chosen as a positive control, and ethosuximide, which is effective in the scPTZ model, was chosen as a positive control. […]
The test compound wa s
Absence of clonic spasms indicated a […]

Data set [3] concerns mice. The data set is described as follows: Rotarod (ROT) neurotoxicity test. The following applies: for TD50 (ROT): 0.5 h, value (95% CI); for NT (neurotoxicity, ROT), dose at which at least one of three animals showed neurotoxicity: doses 100, 300 mg/kg. In general terms: In the rotarod test animals must keep their balance on a rotating rod.
Procedure: The neurotoxicity of the target compounds was tested using the ROT experimental model, which was divided into two dose groups, 100 and 300 mg/kg, and tested after 0.5 and 4 h of administration, respectively.
The neurotoxicity of the target compounds was determined using the ROT experimental model.
The neurotoxicity of the compounds wa s measured in mice using the rotarod test. Mice
we r e trained to stay on an accelerating rotarod (diameter, 3.2 cm) rotating at 10 rpm. Trained
animals we r e injected with the test compounds (i.p.) and neurotoxicity wa s measured as the
inability of the animal to maintain equilibrium on the rod for at least 1 min in each of the
The subject of the next data set is MES-induced seizures. As to the kind of experiment: animal or person. The following applies: for ED50 (MES): value (95% CI); for PI (TD50/ED50) MES: Kunming, mouse, in vivo; for minimal effective dose: ip, doses 30, 100, 300 mg/kg, read-out: MES, dose at which at least one of three animals was protected. Format: in vivo, Kunming mice. As to the method:
as §1
Protection against the spread of
extension component of the seizure. […]

The subject of data set [4] is GABA content in brain tissue. As to the kind of experiment: GABA estimation in brain tissue. The class given is in vivo, Wistar rats. As to conditions: 30 mg/kg, n = 5.
Procedure: The data obtained from the experiments were analyzed and processed and plotted using GraphPad Prism 8 software.
We i g h about 0.05 g of tissue sample in a homogenizer, add 450 µL of extracting solution
to homogenize, homogenize, transfer to an EP tube, mark the liquid level scale, and heat for 2
hours at 95°C. After heating, centrifuge at 8000 × g for 10 min and remove the supernatant for
① Standard tube: Ta k e 30 µL of different concentrations of standards and add them to
the corresponding 1.5 mL EP tube. Measurement tube: Ta k e 30 µL of sample supernatant and
add it to 1.5 mL EP tube. ② Add 50 µL of buffer solution and 40 µL of Chromogenic Agent A
to each tube in step, mix we l l , and let stand at room temperature for 5 min. ③ Add 60 µL of
Chromogenic Agent B to each tube in step, mix we l l , and heat at 95°C for 10 min, then cool at
ice bath. ④ Add 200 µL of supplementary solution to each tube in step and mix well. ⑤ Ta k e
200 µL into the corresponding we l l s of the enzyme plate, and measure the OD va l u e of each
Where [5] appears, read: Mus musculus, sc, 0.5 h after administration.
Setting [6] is: Mus musculus, sc, 4 h after administration.
Where [7] appears, read: Mus musculus, 0.5 h after administration.
The mark [8] stands for this setting: Mus musculus, 4 h after administration.

Entries after “also recorded” stand apart in the source; their conditions may differ. Like-named read-outs stand apart in the source and are kept apart here.

For the molecule `CN1C(=O)CN=C(c2ccccc2)c2cc(Cl)ccc21` [Diazepam, reference compound], in the data set with mice [1] (1 mg/kg), the “EPM % of time in open arms vs control” value is “showed a significant difference”.

On to `Cc1cccc(C(=O)Nc2ccc(-n3cncn3)cc2)c1` [Compound 6l, N-(4-(1H-1,2,4-triazol-1-yl)phenyl)-3-methylbenzamide], for which the ED50 (scPTZ) in data set [2] (0.5 h) came to 19 mg/kg. The “PI (TD50/ED50) scPTZ” value in data set [2] (0.5 h) stood at 22.1. Also, the ED50 (as a rule, the dose at which the effect has come halfway, by size or by number of responders) in data set [2] (Mus musculus, sc, 0.5 h, as given in the text, read-out: ED50 (scPTZ)) came to 19 mg/kg; with MES-induced seizures (Mus musculus, 0.5 h, as given in the text), 9.1 mg/kg. Also, the minimal effective dose (in data set [2] (setting [5]); in data set [2] (setting [6]); in the data set with MES-induced seizures (setting [7]); in the data set on MES-induced seizures (setting [8])) was 30 mg/kg each time. The “TD50 (ROT)” value with mice [3] is listed as 419.5 (456.1–385.9) mg. Also, the “NT (neurotoxicity, ROT), dose at which at least one of three animals showed neurotoxicity” value (from here on “NT (neurotoxicity, ROT), dose at which”) with mice [3] (0.5 h after administration) and in the data set on mice [3] (4 h after administration) was more than 300 mg/kg in each case. Also, the ED50 (MES) in the data set on MES-induced seizures (0.5 h) worked out at 9.1 mg/kg. For the same molecule, the “PI (TD50/ED50) MES” value in the data set with MES-induced seizures (0.5 h) turned out to be 45.9. The “GABA content in brain tissue vs control” value in data set [4] (2 h after administration) is reported as “do not show significant differences”; in data set [4] (7 d continuous administration) it was “showed significant differences”. Moreover, the “EPM % of time in open arms vs control” value is recorded as “showed a significant difference” with mice [1] (0.5 mg/kg) and “did not show a significant difference” with mice [1] (6l 0.5 mg/kg + FMZ 5 mg/kg). In addition, the “EPM time in open arm vs 6l group” value with mice [1] (6l 0.5 mg/kg + FMZ 5 mg/kg) was “significantly shortened the time of the experimental animals in the open arm”.

`O=C(Nc1ccc(-n2cncn2)cc1)c1ccc(F)cc1` [Compound 6g, N-(4-(1H-1,2,4-triazol-1-yl)phenyl)-4-fluorobenzamide] yielded an ED50 (scPTZ) in data set [2] (0.5 h) of 31.5 mg/kg. For the same molecule, the “PI (TD50/ED50) scPTZ” value in data set [2] (0.5 h) is on record as 13.6. The minimal effective dose in data set [2] (setting [5]) turned out to be 30 mg/kg; in data set [2] (setting [6]) it was 100 mg/kg; in the data set on MES-induced seizures (setting [7]), 30 mg/kg; in the data set on MES-induced seizures (setting [8]) it was 30 mg/kg. The “TD50 (ROT)” value with mice [3] is listed as 429.1 (466.4–394.7) mg. Also, the “NT (neurotoxicity, ROT), dose at which” value with mice [3] (0.5 h after administration) and in the data set with mice [3] (4 h after administration) was more than 300 mg/kg in each case. The same molecule yielded an ED50 (MES) in the data set on MES-induced seizures (0.5 h) of 13.7 mg/kg. In addition, in the data set on MES-induced seizures (0.5 h), the “PI (TD50/ED50) MES” value is recorded as 31.3.

On to `O=C(Nc1ccc(-n2cncn2)cc1)c1cccc(Cl)c1` [Compound 6c, N-(4-(1H-1,2,4-triazol-1-yl)phenyl)-3-chlorobenzamide], for which the minimal effective dose in data set [2] (setting [5]) turned out to be 100 mg/kg; in data set [2] (setting [6]), 100 mg/kg; in the data set with MES-induced seizures (setting [7]), 100 mg/kg; in the data set on MES-induced seizures (setting [8]), 300 mg/kg. In addition, the “NT (neurotoxicity, ROT), dose at which” value with mice [3] (0.5 h after administration) and in the data set on mice [3] (4 h after administration) was more than 300 mg/kg in each case.

With `CCOC(=O)c1ncn2c1CN(C)C(=O)c1cc(F)ccc1-2` [Flumazenil, reference compound], the “EPM % of time in open arms vs control” value with mice [1] (5 mg/kg, listed as FMZ) is “did not show significant differences; also recorded: did not show a significant difference”.

As to `Cc1ccc(C(=O)Nc2ccc(-n3cncn3)cc2)cc1` [Compound 6m, N-(4-(1H-1,2,4-triazol-1-yl)phenyl)-4-methylbenzamide], the minimal effective dose in data set [2] (setting [5]) turned out to be 100 mg/kg; in data set [2] (setting [6]) it was 300 mg/kg; in the data set on MES-induced seizures (setting [7]) it was 300 mg/kg; in the data set on MES-induced seizures (setting [8]), 300 mg/kg. Moreover, the “NT (neurotoxicity, ROT), dose at which” value with mice [3] (0.5 h after administration) and in the data set on mice [3] (4 h after administration) was more than 300 mg/kg in each case.

As for `CCCCCC(=O)Nc1ccc(-n2cncn2)cc1` [Compound 9d, N-(4-(1H-1,2,4-triazol-1-yl)phenyl)hexanamide], the minimal effective dose came to 100 mg/kg in data set [2] (setting [5]), 100 mg/kg in data set [2] (setting [6]), 30 mg/kg in the data set on MES-induced seizures (setting [7]) and 30 mg/kg in the data set on MES-induced seizures (setting [8]). For the same molecule, the “NT (neurotoxicity, ROT), dose at which” value in the data set on mice [3] (0.5 h after administration) and in the data set on mice [3] (4 h after administration) was more than 300 mg/kg each time.

In data set [2] (0.5 h), `CCCCC(=O)Nc1ccc(-n2cncn2)cc1` [Compound 9c, N-(4-(1H-1,2,4-triazol-1-yl)phenyl)pentanamide] displayed an ED50 (scPTZ) of 35.5 mg/kg. The “PI (TD50/ED50) scPTZ” value in data set [2] (0.5 h) is 7.3. Moreover, the minimal effective dose is 30 mg/kg in data set [2] (setting [5]), 100 mg/kg in data set [2] (setting [6]), 30 mg/kg in the data set on MES-induced seizures (setting [7]) and 30 mg/kg with MES-induced seizures (setting [8]). The “TD50 (ROT)” value in the data set with mice [3] is given as 260.0 (282.7–239.2) mg. In addition, the “NT (neurotoxicity, ROT), dose at which” value with mice [3] (0.5 h after administration) is 300 mg/kg; in the data set with mice [3] (4 h after administration) it was more than 300 mg/kg. This molecule also gave an ED50 (MES) with MES-induced seizures (0.5 h) of 17.3 mg/kg. Moreover, the “PI (TD50/ED50) MES” value in the data set with MES-induced seizures (0.5 h) came to 15.0.

In the case of `Cc1ccccc1C(=O)Nc1ccc(-n2cncn2)cc1` [Compound 6k, N-(4-(1H-1,2,4-triazol-1-yl)phenyl)-2-methylbenzamide], the minimal effective dose in data set [2] (setting [5]) turned out to be 100 mg/kg; in data set [2] (setting [6]), 300 mg/kg; in the data set with MES-induced seizures (setting [7]) it was 30 mg/kg; in the data set with MES-induced seizures (setting [8]), 100 mg/kg. Further, the “NT (neurotoxicity, ROT), dose at which” value in the data set on mice [3] (0.5 h after administration) and in the data set on mice [3] (4 h after administration) was more than 300 mg/kg each time.

For the molecule `CCCCCCCC(=O)Nc1ccc(-n2cncn2)cc1` [Compound 9f, N-(4-(1H-1,2,4-triazol-1-yl)phenyl)octanamide], the minimal effective dose in data set [2] (setting [5]) was 300 mg/kg; in data set [2] (setting [6]) it was more than 300 mg/kg; with MES-induced seizures (setting [7]), 100 mg/kg; in the data set with MES-induced seizures (setting [8]) it was 300 mg/kg. For the same molecule, the “NT (neurotoxicity, ROT), dose at which” value in the data set on mice [3] (0.5 h after administration) and in the data set on mice [3] (4 h after administration) was more than 300 mg/kg each time.

Turning to `O=C(Nc1ccc(-n2cncn2)cc1)c1cccc(C(F)(F)F)c1` [Compound 6i, N-(4-(1H-1,2,4-triazol-1-yl)phenyl)-3-(trifluoromethyl)benzamide], the ED50 (scPTZ) in data set [2] (0.5 h) turned out to be 22.8 mg/kg. Also, in data set [2] (0.5 h), the “PI (TD50/ED50) scPTZ” value came to 16.7. The minimal effective dose is 30 mg/kg in data set [2] (setting [5]), 100 mg/kg in data set [2] (setting [6]), 30 mg/kg in the data set on MES-induced seizures (setting [7]) and 30 mg/kg in the data set with MES-induced seizures (setting [8]). In addition, the “TD50 (ROT)” value in the data set on mice [3] is reported as 381.4 (414.6–350.8) mg. Moreover, the “NT (neurotoxicity, ROT), dose at which” value in the data set on mice [3] (0.5 h after administration) and in the data set on mice [3] (4 h after administration) was more than 300 mg/kg throughout. This molecule also gave an ED50 (MES) in the data set with MES-induced seizures (0.5 h) of 21.9 mg/kg. Further, in the data set with MES-induced seizures (0.5 h), the “PI (TD50/ED50) MES” value was determined as 17.4.

As to `CCCCCCC(=O)Nc1ccc(-n2cncn2)cc1` [Compound 9e, N-(4-(1H-1,2,4-triazol-1-yl)phenyl)heptanamide], the minimal effective dose was 300 mg/kg in data set [2] (setting [5]), more than 300 mg/kg in data set [2] (setting [6]), 100 mg/kg with MES-induced seizures (setting [7]) and 300 mg/kg with MES-induced seizures (setting [8]). Besides, the “NT (neurotoxicity, ROT), dose at which” value with mice [3] (0.5 h after administration) and in the data set with mice [3] (4 h after administration) was more than 300 mg/kg in each case.

As to `O=C(Nc1ccc(-n2cncn2)cc1)c1ccc(C(F)(F)F)cc1` [Compound 6j, N-(4-(1H-1,2,4-triazol-1-yl)phenyl)-4-(trifluoromethyl)benzamide], the minimal effective dose was 100 mg/kg in data set [2] (setting [5]), 100 mg/kg in data set [2] (setting [6]), 100 mg/kg with MES-induced seizures (setting [7]) and 300 mg/kg in the data set on MES-induced seizures (setting [8]). For the same molecule, the “NT (neurotoxicity, ROT), dose at which” value with mice [3] (0.5 h after administration) and in the data set with mice [3] (4 h after administration) was more than 300 mg/kg in each case.

The record behind these values is paper PMC12388125, “Design, Synthesis, and Pharmacological Activity of the N-(4-(1H-1,2,4-Triazol-1-yl)phenyl)-substituted-amide Derivatives” (Molecules, 2025).
